Laboratory results: patent US11078216B2, “Bisaryl amides as NRF2 activators” (GLAXOSMITHKLINE INTELLECTUAL PROPERTY DEVELOPMENT LIMITED, priority 2016, dated 2021)

Test system: NRF2 (NQO1 activity as marker for NRF2 activation), BEAS-2B cells
Experiment: BEAS-2B NQO1 MTT Assay
Assay type: cell-based
Conditions: Homo sapiens, EC50 of NQO1 specific activity induction, 48 hours incubation, read-out: EC50
Excerpt: NAD(P)H:quinone oxidoreductase 1 (NQO1), also called DT diaphorase, is a homodimeric FAD-containing enzyme that catalyzes obligatory NAD(P)H-dependent two-electron reductions of quinones and protects cells against the toxic and neoplastic effects of free radicals and reactive oxygen species arising from one-electron reductions. The transcription of NQO1 is finely regulated by NRF2, and thus NQO1 activity is a good marker for NRF2 activation. On day one, frozen BEAS-2B cells (ATCC) are thawed in a water bath, counted, and re-suspended at a concentration of 250,000 cells/mL. Fifty microliters of cells are plated in 384 well black clear-bottomed plates. Plates are incubated at 37° C., 5% CO2 overnight. On day two, plates are centrifuged and 50 nL of compound or controls are added to the cells. Plates are then incubated at 37° C., 5% CO2 for 48 hours. On day four, medium is aspirated from the plate and crude cell lysates are made by adding 13 uL of 1× Cell Signaling Technologies lysis buffer with 1 Complete, Mini, EDTA-free Protease Inhibitor Tablet (Roche) for each 10 mL of lysis buffer. After lysis plates are incubated for 20 minutes at room temperature. Two microliters of lysate are removed for use in Cell Titer Glo assay (Promega) and MTT cocktail is prepared (Prochaska et. al. 1998) for measurement of NQO1 activity. Fifty microliters of MTT cocktail is added to each well, plate is centrifuged, and analyzed on an Envision plate reader (Perkin Elmer) using Absorbance 570 nm label for 30 minutes. Product formation is measured kinetically and the EC50 of NQO1 specific activity induction is calculated by plotting the change in absorbance (Delta OD/min) versus the log of compound concentration followed by 3-parameter fitting.
EC50s<1 nM (+++++), EC50s 1 nM-10 nM (++++), EC50s 10 nM-100 nM (+++), EC50s 100 nM-1 uM (++), EC50s 1-10 uM (+), EC50s>10 uM (−), or were not determined (ND).

Row | Compound | EC50 [nM]
1 | CC[C@@H]1CN(Cc2cc(C(CC(=O)Nc3cccnc3)c3ccc(C#N)cc3C)ccc2C)S(=O)(=O)c2cccnc2O1 (single isomer, unassigned) [Example 69] | 100 to 1000
2 | CC[C@@H]1CN(Cc2cc([C@H](CC(=O)Nc3cccnc3)c3ccc4c(nnn4CC)c3C)ccc2C)S(=O)(=O)c2cccnc2O1 [Example 1, (S)-3-(3-(((R)-4-Ethyl-1,1-dioxido-3,4-dihydro-2H-pyrido[2,3-b][1,4,5]oxathiazepin-2-yl)methyl)-4-methylphenyl)-3-(1-ethyl-4-methyl-1H-benzo[d][1,2,3]triazol-5-yl)-N-(pyridin-3-yl)propanamide] | 10 to 100
3 | CC[C@@H]1CN(Cc2cc([C@H](CC(=O)Nc3cnsc3)c3ccc4c(nnn4CC)c3C)ccc2C)S(=O)(=O)c2cccnc2O1 [Example 2, (S)-3-(3-(((R)-4-Ethyl-1,1-dioxido-3,4-dihydro-2H-pyrido[2,3-b][1,4,5]oxathiazepin-2-yl)methyl)-4-methylphenyl)-3-(1-ethyl-4-methyl-1H-benzo[d][1,2,3]triazol-5-yl)-N-(isothiazol-4-yl)propanamide] | 10 to 100
4 | CC[C@@H]1CN(Cc2cc([C@H](CC(=O)NCc3ncco3)c3ccc4c(nnn4CC)c3C)ccc2C)S(=O)(=O)c2cccnc2O1 [Example 3, (S)-3-(3-(((R)-4-Ethyl-1,1-dioxido-3,4-dihydro-2H-pyrido[2,3-b][1,4,5]oxathiazepin-2-yl)methyl)-4-methylphenyl)-3-(1-ethyl-4-methyl-1H-benzo[d][1,2,3]triazol-5-yl)-N-(oxazol-2-ylmethyl)propanamide] | 100 to 1000
5 | CC[C@@H]1CN(Cc2cc([C@H](CC(=O)NC3COC3)c3ccc4c(nnn4CC)c3C)ccc2C)S(=O)(=O)c2cccnc2O1 [Example 4, (S)-3-(3-(((R)-4-Ethyl-1,1-dioxido-3,4-dihydro-2H-pyrido[2,3-b][1,4,5]oxathiazepin-2-yl)methyl)-4-methylphenyl)-3-(1-ethyl-4-methyl-1H-benzo[d][1,2,3]triazol-5-yl)-N-(oxetan-3-yl)propanamide] | 100 to 1000
6 | CC[C@@H]1CN(Cc2cc([C@H](CC(=O)NC3CCS(=O)(=O)C3)c3ccc4c(nnn4CC)c3C)ccc2C)S(=O)(=O)c2cccnc2O1 (stereo partly drawn) [Example 5, (3S)-N-(1,1-Dioxidotetrahydrothiophen-3-yl)-3-(3-(((R)-4-ethyl-1,1-dioxido-3,4-dihydro-2H-pyrido[2,3-b][1,4,5]oxathiazepin-2-yl)methyl)-4-methylphenyl)-3-(1-ethyl-4-methyl-1H-benzo[d][1,2,3]triazol-5-yl)propanamide] | 100 to 1000
7 | CC[C@@H]1CN(Cc2cc([C@H](CC(=O)n3ccc(N)n3)c3ccc4c(nnn4CC)c3C)ccc2C)S(=O)(=O)c2cccnc2O1 [Example 6, (S)-1-(3-Amino-1H-pyrazol-1-yl)-3-(3-(((R)-4-ethyl-1,1-dioxido-3,4-dihydro-2H-pyrido[2,3-b][1,4,5]oxathiazepin-2-yl)methyl)-4-methylphenyl)-3-(1-ethyl-4-methyl-1H-benzo[d][1,2,3]triazol-5-yl)propan-1-one] | 1 to 10
8 | CC[C@@H]1CN(Cc2cc([C@H](CC(=O)n3nccc3N)c3ccc4c(nnn4CC)c3C)ccc2C)S(=O)(=O)c2cccnc2O1 [Example 7, (S)-1-(5-Amino-1H-pyrazol-1-yl)-3-(3-(((R)-4-ethyl-1,1-dioxido-3,4-dihydro-2H-pyrido[2,3-b][1,4,5]oxathiazepin-2-yl)methyl)-4-methylphenyl)-3-(1-ethyl-4-methyl-1H-benzo[d][1,2,3]triazol-5-yl)propan-1-one] | 1 to 10
9 | CC[C@@H]1CN(Cc2cc([C@H](CC(=O)NCc3ncc[nH]3)c3ccc4c(nnn4CC)c3C)ccc2C)S(=O)(=O)c2cccnc2O1 [Example 8, (S)-N-((1H-Imidazol-2-yl)methyl)-3-(3-(((R)-4-ethyl-1,1-dioxido-3,4-dihydro-2H-pyrido[2,3-b][1,4,5]oxathiazepin-2-yl)methyl)-4-methylphenyl)-3-(1-ethyl-4-methyl-1H-benzo[d][1,2,3]triazol-5-yl)propanamide] | 100 to 1000
10 | CC[C@@H]1CN(Cc2cc([C@H](CC(=O)Nc3ccnn3C)c3ccc4c(nnn4CC)c3C)ccc2C)S(=O)(=O)c2cccnc2O1 [Example 9, (S)-3-(3-(((R)-4-Ethyl-1,1-dioxido-3,4-dihydro-2H-pyrido[2,3-b][1,4,5]oxathiazepin-2-yl)methyl)-4-methylphenyl)-3-(1-ethyl-4-methyl-1H-benzo[d][1,2,3]triazol-5-yl)-N-(1-methyl-1H-pyrazol-5-yl)propanamide] | 100 to 1000
11 | CC[C@@H]1CN(Cc2cc([C@H](CC(=O)Nc3cnccc3C)c3ccc4c(nnn4CC)c3C)ccc2C)S(=O)(=O)c2cccnc2O1 [Example 10, (S)-3-(3-(((R)-4-Ethyl-1,1-dioxido-3,4-dihydro-2H-pyrido[2,3-b][1,4,5]oxathiazepin-2-yl)methyl)-4-methylphenyl)-3-(1-ethyl-4-methyl-1H-benzo[d][1,2,3]triazol-5-yl)-N-(4-methylpyridin-3-yl)propanamide] | 100 to 1000
12 | CC[C@@H]1CN(Cc2cc([C@H](CC(=O)Nc3cnccc3OC)c3ccc4c(nnn4CC)c3C)ccc2C)S(=O)(=O)c2cccnc2O1 [Example 11, (S)-3-(3-(((R)-4-Ethyl-1,1-dioxido-3,4-dihydro-2H-pyrido[2,3-b][1,4,5]oxathiazepin-2-yl)methyl)-4-methylphenyl)-3-(1-ethyl-4-methyl-1H-benzo[d][1,2,3]triazol-5-yl)-N-(4-methoxypyridin-3-yl)propanamide] | 10 to 100
13 | CC[C@@H]1CN(Cc2cc([C@H](CC(=O)Nc3cncc(C(F)(F)F)c3)c3ccc4c(nnn4CC)c3C)ccc2C)S(=O)(=O)c2cccnc2O1 [Example 12, (S)-3-(3-(((R)-4-Ethyl-1,1-dioxido-3,4-dihydro-2H-pyrido[2,3-b][1,4,5]oxathiazepin-2-yl)methyl)-4-methylphenyl)-3-(1-ethyl-4-methyl-1H-benzo[d][1,2,3]triazol-5-yl)-N-(5-(trifluoromethyl)pyridin-3-yl)propanamide] | 10 to 100
14 | CC[C@@H]1CN(Cc2cc([C@H](CC(=O)Nc3cncc(OC)c3)c3ccc4c(nnn4CC)c3C)ccc2C)S(=O)(=O)c2cccnc2O1 [Example 13, (S)-3-(3-(((R)-4-Ethyl-1,1-dioxido-3,4-dihydro-2H-pyrido[2,3-b][1,4,5]oxathiazepin-2-yl)methyl)-4-methylphenyl)-3-(1-ethyl-4-methyl-1H-benzo[d][1,2,3]triazol-5-yl)-N-(5-methoxypyridin-3-yl)propanamide] | 10 to 100
15 | CC[C@@H]1CN(Cc2cc([C@H](CC(=O)Nc3ccc(C(F)(F)F)nc3)c3ccc4c(nnn4CC)c3C)ccc2C)S(=O)(=O)c2cccnc2O1 [Example 14, (S)-3-(3-(((R)-4-Ethyl-1,1-dioxido-3,4-dihydro-2H-pyrido[2,3-b][1,4,5]oxathiazepin-2-yl)methyl)-4-methylphenyl)-3-(1-ethyl-4-methyl-1H-benzo[d][1,2,3]triazol-5-yl)-N-(6-(trifluoromethyl)pyridin-3-yl)propanamide] | 100 to 1000
16 | CC[C@@H]1CN(Cc2cc([C@H](CC(=O)Nc3ccc(C)nc3)c3ccc4c(nnn4CC)c3C)ccc2C)S(=O)(=O)c2cccnc2O1 [Example 15, (S)-3-(3-(((R)-4-Ethyl-1,1-dioxido-3,4-dihydro-2H-pyrido[2,3-b][1,4,5]oxathiazepin-2-yl)methyl)-4-methylphenyl)-3-(1-ethyl-4-methyl-1H-benzo[d][1,2,3]triazol-5-yl)-N-(6-methylpyridin-3-yl)propanamide] | 100 to 1000
